Four compounds from patent US6071884A, “Pharmaceutical compositions and therapeutic methods” (Kirin Beer Kabushiki Kaisha, priority 1992, dated 2000) can be followed below.

Assay [1] concerns marrow cells (mononuclear cell fraction). The assay can be described thus: Proliferation-stimulating effect on marrow cell of mouse (3H-TdR uptake). Type of assay: cell-based, mouse (BALB/c). As to conditions: percentage of control, 72 h; for activity at 0.1 µg/mL: 10^-1 μg/ml; for activity at 0.01 µg/mL: 10^-2 μg/ml; for activity at 0.001 µg/mL: 10^-3 μg/ml; for activity at 1 µg/mL: 10^0 μg/ml. The method, then:
Pharmacological Test 1: Proliferation-Stimulating Effect on Marrow Cell of Mouse
Marrow cells were prepared from the thigh bone of a 7 week old female BALB/c mouse purchased from Japan SLC Co., Ltd., and a mononuclear cell fraction (MNF) obtained by fractionation using a lympholyte-M (Cedar Lane, Ontario, Canada) was used in the following experiment.
The concentration of the MNF was adjusted to 1.5×10^6 cells/ml by using 10% FCS RPMI 1640 (Nissui Pharmaceutical Co., Ltd., Tokyo, Japan) as a culture medium. 10 μl/well of a sample with a predetermined concentration and 100 μl/well of the above-prepared MNF were placed on a round-bottomed 96 well plate, and incubated under the conditions of 37° C. and 5% CO2 for 72 hours. Thereafter, 0.5 μCi/well of ^3 H-thymidine (^3 H-TDR) was added. After 8 hour incubation, the cells were harvested, and the amount of the 3H-TdR taken in the nuclei was measured by a liquid scintillation counter.

Assay [2] in a line: Life-span-increasing effect on irradiation of a lethal dose of radiation. The format is in vivo, mouse (BDF1). The note with it: 10 mice/group, 9 Gy X-ray, 0.1 mg/kg i.v. days 0, 4, 8. The method, then:
Pharmacological Test 4: Life-Span-Increasing Effect on Irradiation of a Lethal Dose of Radiation
An experiment was carried out by using 6 week old female BDF1 mice purchased from Japan SLC Co., Ltd., with 10 mice made one group.
The entire bodies of the entire body of the mice were irradiated with 9 Gy of X-rays by using a Hitachi X-ray irradiator (MBR-1520R), and the day on which the X-ray was irradiated was referred to as "day 0".

In assay [3] the test system is blood platelets. The assay can be described thus: Thrombocytopenia-inhibiting effect in X-ray-irradiated mice. Type of assay: in vivo, mouse (BDF1). The note with it: 10 days after 5 Gy X-ray; 0.1 mg/kg i.v. within 2 h; mean ± SD; vehicle per series 10.3, 6.8, 6.7; non-treatment 68.2, 96.9, 73.0. The method, then: Pharmacological Test 5: Thromboclytopenia-Inhibiting Effect
The thrombocytopenia-inhibiting effect of each sample upon an X-ray-irradiated mouser which is one of models with a decreased number of blood platelets was examined.
An experiment was carried out by using 6 week old female BDF1 mice purchased from Japan SLC Co., Ltd., with 6 mice made one group.
5 Gy of X ray was irradiated to the entire body of the mice by a Hitachi X-ray irradiator CMBR-1520R). Within 2 hours after the irradiation, each sample was administered to the caudal vein of the mice at an amount of 0.1 mg/kg.
After 10 days, blood was collected from the fundus vein of the mice, and the number of blood platelets was measured by a sequential multi-channel hemocytometer E-2500/cs (Toa Iyo Denshi Kabushiki Kaisha). The number of blood platelets of the non-treated group, that of the medium-administered group, and that of the sample-administered group are shown in Table 5.

Assay [4] relates to blood platelets. The assay can be described thus: Blood-platelet-increasing effect upon normal mouse. Type of assay: in vivo, mouse (BDF1). The note with it: normal mice; 6 days after 0.1 mg/kg i.v.; mean ± SD; vehicle per series 58.2, 63.0, 71.1. The method, then: Pharmacological Test 6: Blood-Platelet-Increasing Effect upon Mouse
An experiment was carried out by using 6 week old female BDF1 mice purchased from Japan SLC Co., Ltd., with 5 mice made one group.
Each sample was administered to the caudal vein of the mice at a dose of 0.1 mg/kg. After 6 days, blood was collected from the fundus vein of the mice, and the number of blood platelets was measured by a sequential multi-channel hemocytometer E-2500/cs (Toa Iyo Denshi Kabushiki Kaisha). The number of blood platelets of the vehicle-administered group, and that of the sample-administered group are shown in Table 6.

Setting [5] is: day 10, controls per series 10, 10, 10, 10, 10, 8.
[6] abbreviates: day 15, controls per series 8, 9, 5, 5, 7, 1.
[7] abbreviates: day 20, controls per series 4, 5, 1, 2, 3, 0.
Setting [8] is: day 25, controls per series 3, 3, 0, 0, 2, 0.
Setting [9] is: day 30, controls per series 1, 1, 0, 0, 0, 0.

Take `CCCCCCCCCCCCCC(=O)N[C@@H](CO[C@H]1O[C@H](CO)[C@H](O)[C@H](O)[C@H]1O)[C@H](O)CCCCCCCCCCCCC` [Compound 10, (2S,3R)-1-(α-D-galactopyranosyloxy)-2-tetradecanoylamino-3-hexadecanol]: in assay [1], the activity at 0.1 µg/mL came out at 356%. Moreover, the activity at 0.01 µg/mL in assay [1] came to 90%. The activity at 0.001 µg/mL in assay [1] was determined as 77%. In addition, the “Number of Surviving Mice” value came out at 10 mice in assay [2] (setting [5]); 8 mice in assay [2] (setting [6]); 7 mice in assay [2] (setting [7]); 7 mice in assay [2] (setting [8]); 7 mice in assay [2] (setting [9]); 7 mice in assay [2] (day 35, all controls 0). Moreover, in assay [2] (day 40, all controls 0), the “Number of Surviving Mice” value was 7 mice. The “Number of Blood Platelets” value was 19.6 ± 4.0 × 10^4 /μl with blood platelets [3] and 87.2 ± 4.0 × 10^4 /μl in the assay with blood platelets [4].

Turning to `CCCCCCCCCCCCC/C=C/[C@@H](O)[C@H](CO[C@H]1O[C@H](CO)[C@H](O)[C@H](O)[C@H]1O)NC(=O)CCCCCCCCCCCCCCCCC` [Compound 15, (2S,3R,4E)-1-(α-D-galactopyranosyloxy)-2-octadecanoylamino-4-octadecen-3-ol], the activity at 1 µg/mL in assay [1] was 979%. Besides, in assay [1], the activity at 0.1 µg/mL was 292%. The activity at 0.01 µg/mL in assay [1] turned out to be 101%. In assay [1], the activity at 0.001 µg/mL is 69%. Besides, the “Number of Surviving Mice” value in assay [2] (setting [5]) is recorded as 10 mice; in assay [2] (setting [6]), 9 mice; in assay [2] (setting [7]), 6 mice; in assay [2] (setting [8]), 6 mice; in assay [2] (setting [9]), 6 mice; in assay [2] (day 35, all controls 0), 6 mice. Further, in assay [2] (day 40, all controls 0), the “Number of Surviving Mice” value was 6 mice. Moreover, the “Number of Blood Platelets” value in the assay with blood platelets [3] is reported as 17.8 ± 2.4 × 10^4 /μl; with blood platelets [4] it was 84.7 ± 6.0 × 10^4 /μl.

As to `CCCCCCCCCCCCCCCCCCCCCCCC(=O)N[C@@H](CO[C@H]1O[C@H](CO)[C@H](O)[C@H](O)[C@H]1O)[C@H](O)[C@H](O)CCCCCCC` [Compound 19, (2S,3S,4R)-1-(α-D-galactopyranosyloxy)-2-tetracosanoylamino-3,4-undecanediol], in assay [1], the activity at 0.1 µg/mL came out at 499%. Besides, the activity at 0.01 µg/mL in assay [1] was found to be 207%. Also, in assay [1], the activity at 0.001 µg/mL is 173%. In addition, the “Number of Surviving Mice” value in assay [2] (setting [5]) is on record as 10 mice; in assay [2] (setting [6]), 10 mice; in assay [2] (setting [7]) it was 10 mice; in assay [2] (setting [8]), 10 mice; in assay [2] (setting [9]), 10 mice; in assay [2] (day 35, all controls 0), 10 mice. Moreover, the “Number of Surviving Mice” value in assay [2] (day 40, all controls 0) is listed as 10 mice. Further, the “Number of Blood Platelets” value was 23.4 ± 4.2 × 10^4 /μl in the assay with blood platelets [3] and 106.4 ± 12.7 × 10^4 /μl with blood platelets [4].

As for `CCCCCCCCCCCCCCCCCCCCCC[C@@H](O)C(=O)N[C@@H](CO[C@H]1O[C@H](CO)[C@H](O)[C@H](O)[C@H]1O)[C@H](O)[C@H](O)CCCCCCC` [Compound 24, (2S,3S,4R)-1-(α-D-galactopyranosyloxy)-2-[(R)-2-hydroxytetracosanoylamino]-3,4-undecanediol], the activity at 1 µg/mL in assay [1] was 576%. Besides, the activity at 0.1 µg/mL in assay [1] stood at 197%. The activity at 0.01 µg/mL in assay [1] turned out to be 79%. Also, the activity at 0.001 µg/mL in assay [1] was 77%. Also, the “Number of Surviving Mice” value came to 10 mice in assay [2] (setting [5]); 9 mice in assay [2] (setting [6]); 9 mice in assay [2] (setting [7]); 9 mice in assay [2] (setting [8]); 9 mice in assay [2] (setting [9]); 9 mice in assay [2] (day 35, all controls 0). Also, in assay [2] (day 40, all controls 0), the “Number of Surviving Mice” value was determined as 9 mice. The “Number of Blood Platelets” value in the assay on blood platelets [3] is 21.6 ± 7.2 × 10^4 /μl; in the assay on blood platelets [4], 102.6 ± 9.9 × 10^4 /μl.
